Source: paper PMC11787888, “Development and confirmation of humanized plasma and epithelial lining fluid exposures of meropenem, cefiderocol and tobramycin in a standardized neutropenic murine pneumonia model” (Journal of Antimicrobial Chemotherapy, 2024)
≈ marks a conversion by molar mass, not a printed value. Where two headings read alike, the source gives them in different places.

How the values were obtained:
[1] = set-up: method as in PMID 33371322, PMID 31724042, PMID 15107149; conditions: cited from earlier work
[2] = Plasma pharmacokinetics in the COMBINE murine neutropenic pneumonia model; conditions: for k el: female, CD-1, mouse, plasma, sc; for K a (absorption rate constant into central compartment) / V plasma (volume of distribution in central compartment): best-fit one-compartment model
Description: (§1) The model followed the COMBINE protocol with laboratory-specific detailed methods as follows.[6] Specific pathogen free CD-1, female mice 6–8 weeks old were acquired from Charles River Laboratories, Inc. (Raleigh, NC, USA). All animals were allowed to acclimatize for 72 h before any study procedures and were housed as groups of six at controlled room temperature in HEPA-filtered cages (Innovive, San Diego, CA, USA). Study rooms were maintained with diurnal cycles (12 h light/12 h dark) and food and water were provided ad libitum.
(§2) Neutropenia was achieved through 0.2 mL intraperitoneal (IP) administrations of cyclophosphamide 150 mg/kg on day minus 4 and an additional 100 mg/kg on day minus 1. A predictable degree of renal impairment was produced using 5 mg/kg of uranyl nitrate (Electron Microscopy Sciences, Hatfield, PA, USA) dissolved in sterile water administered as a 0.2 mL IP injection on day minus 3. […] Mice were anaesthetised using inhaled isoflurane, manually restrained upright and infected with 50 µL of bacterial suspension via the nares. Each bacterial inoculation suspension was used within 30 minutes of initial preparation.
(§3) The purpose of these studies was to establish HSRs in both plasma and ELF in the COMBINE murine neutropenic pneumonia model equivalent to clinical doses of meropenem (2 g every 8 h as 3 h infusion),[9] cefiderocol (2 g every 8 h as 3 h infusion)[10] and tobramycin (7 mg/kg as 0.5 h infusion)[11–13] based on unbound (free) exposures.
(§4) At predefined timepoints (shown in Figures 1–3), groups of six mice had blood sampled via retro-orbital bleeding (two time points, under anaesthesia with isoflurane 2%–3% v/v in 100% oxygen via inhalation) and/or cardiac puncture (one terminal time point). Proparacaine hydrochloride ophthalmic solution 0.5% was applied to the eye (1–2 drops) after blood sampling via retro-orbital bleeding. The volume of blood collected was 0.15 mL per sample via retro-orbital bleeding with subsequent fluid replacement using 0.2 mL normal saline given IP. Mice were euthanized by CO2 exposure before cardiac puncture. Following blood collection by cardiac puncture, but before cervical dislocation, bronchoalveolar lavage (BAL) fluid was collected from the mice at the same time points. A catheter was inserted into the trachea of the mice, and lungs were lavaged with four separate aliquots of 0.4 mL of normal saline. The BAL fluid was withdrawn immediately after injection and pooled for each animal. Pooled BAL was centrifuged for 10 min at 4°C and the supernatant was collected for analysis.
(§5) Drug concentrations in ELF were estimated by correcting the drug concentration in BAL fluid for the dilution with normal saline during lung lavage using the following formula: compoundELF = compoundBAL × (ureaplasma/ureaBAL), where compoundBAL is the measured drug concentration in the BAL fluid sample and ureaplasma and ureaBAL are the concentrations of urea in paired plasma and BAL fluid samples from each mouse, respectively. Owing to the lack of albumin in BAL fluid, total ELF concentrations were considered unbound.
(§6) Statistical outliers for each respective analyte were removed by the interquartile range method. Previously reported meropenem, cefiderocol and plazomicin (an aminoglycoside similar to tobramycin) plasma HSRs developed in alternative murine models were used as a baseline.[19],[20] Mathematical modifications were made to the baseline regimens as necessary to achieve translational exposures in the COMBINE model and repeat confirmatory PK studies were undertaken for both plasma and ELF.

clinical = conditions: human, in vivo
Description: as §3

[3] = cited from earlier work
K. pneumoniae CDC 851 = system: K. pneumoniae CDC 851; set-up: method as in earlier work; conditions: cited from earlier work
[4] = ELF pharmacokinetics in the COMBINE murine neutropenic pneumonia model; conditions: for k el: female, CD-1, mouse, epithelial lining fluid (ELF), sc; for K a-ELF (absorption rate constant into ELF compartment) / V ELF (volume of distribution in ELF compartment): best-fit one-compartment model
Description: as §1, §2, §3, §4, §5, §6

[5] = Ex vivo tobramycin plasma protein binding in mice; type: in vitro ADME; conditions: mouse plasma; for fraction unbound at 1 h: subcutaneous
Description: Escalating single doses of tobramycin (2.5, 5 and 10 mg/kg) were administered subcutaneously to determine tobramycin plasma protein binding. Triplicate pooled plasma and ultrafiltrate samples were collected at 1 h (5 mice per replicate, 15 mice per dose) and stored at −80°C until concentration determination. Whole blood was collected in K2EDTA tubes and then subsequently centrifuged at 4°C at 3000g for 10 minutes. Plasma was separated (total plasma) and 900 µL was added to an ultrafiltration device (Centrifree®, Merck Millipore Ltd, Ireland) and centrifuged using a fixed rotor at 10°C at 2000g for an additional 45 minutes to obtain protein free ultrafiltrate. The triplicate free and total tobramycin concentrations were averaged and then free fractions were calculated using the equation: free fraction = concentrationultrafiltrate/concentrationtotal plasma.
Mean percentages of protein binding (±standard deviation) were 27.1% (2.9%), 20.5% (9.3%) and 19.8% (1.5%) at the 1-h timepoint after receiving doses of 2.5, 5 and 10 mg/kg, respectively.

[6] = cited from earlier work; remark: listed apart in the source
[7] = human, 7 mg/kg as 0.5 h infusion
[8] = human ELF, 2 g every 8 h as a 3 h infusion
[9] = human plasma, 2 g every 8 h as a 3 h infusion

**Q.** What does the source list for `NC[C@H]1O[C@H](O[C@H]2[C@H](O)[C@@H](O[C@H]3O[C@H](CO)[C@@H](O)[C@H](N)[C@H]3O)[C@H](N)C[C@@H]2N)[C@H](N)C[C@@H]1O` [Tobramycin, tobramycin]?
**A.** Human plasma protein binding [1]: 10%; k el [2]: 8.61e-05 s⁻¹; K a (absorption rate constant into central compartment) ([2]; mouse plasma): 23.68 h⁻¹; V plasma (volume of distribution in central compartment) ([2]; mouse plasma): 0.37 L/kg; plasma fAUC0-24 ([2]; murine, plasma HSR): 103 mg·h/L; plasma fCmax ([2]; murine, plasma HSR): 17.7 mg/L; Kp (clinical): 0.69; ELF fAUC0-24 (clinical; 7 mg/kg): 79 mg·h/L; ELF fCmax (clinical; 7 mg/kg): 6.8 mg/L; AUCELF/AUCplasma penetration ratio ([3]; human, population PK analysis): 0.64; MIC (K. pneumoniae CDC 851): 16 mg/L (≈ 34.2 µM); k el [4]: 9.72e-05 s⁻¹; K a-ELF (absorption rate constant into ELF compartment) ([4]; mouse ELF): 1.74 h⁻¹; V ELF (volume of distribution in ELF compartment) ([4]; mouse ELF): 0.79 L/kg; ELF fAUC0-24 ([4]; murine, ELF HSR): 76 mg·h/L; ELF fCmax ([4]; murine, ELF HSR): 6.6 mg/L; Unbound fraction in plasma ([5]; average of 2.5, 5 and 10 mg/kg): 77.6%; fraction unbound at 1 h ([5]; 1 h after 2.5 mg/kg subcutaneously, ultrafiltration, read-out: Mean percentage of protein binding (±standard deviation) (converted)): 0.729; fraction unbound at 1 h ([5]; 1 h after 5 mg/kg subcutaneously, ultrafiltration, read-out: Mean percentage of protein binding (±standard deviation) (converted)): 0.795; fraction unbound at 1 h ([5]; 1 h after 10 mg/kg subcutaneously, ultrafiltration, read-out: Mean percentage of protein binding (±standard deviation) (converted)): 0.802; fraction unbound at 1 h ([5]; average of 2.5, 5 and 10 mg/kg, read-out: Plasma protein binding, average across the three doses (converted)): 0.776; plasma fAUC0-24 [6, 7]: 103 mg·h/L; plasma fCmax [6, 7]: 18.3 mg/L

**Q.** For `C[C@@H](O)[C@H]1C(=O)N2C(C(=O)O)=C(S[C@@H]3CN[C@H](C(=O)N(C)C)C3)[C@H](C)[C@H]12` [Meropenem, meropenem], which k el [2] is on record?
**A.** Its k el is 0.00754 s⁻¹.

**Q.** What about the “K a (absorption rate constant into central compartment)” value ([2]; mouse plasma) of the same molecule?
**A.** Its value is 1.34 h⁻¹.

**Q.** What about the “V plasma (volume of distribution in central compartment)” value ([2]; mouse plasma) of the same molecule?
**A.** Its value is 0.04 L/kg.

**Q.** And the “%fT > MIC for a MIC of 1 µg/mL” value ([2]; mouse plasma, plasma HSR)?
**A.** Its value is 100%.

**Q.** And the “%fT > MIC for a MIC of 2 µg/mL” value ([2]; mouse plasma, plasma HSR)?
**A.** The value was 100%.

**Q.** What about the “%fT > MIC for a MIC of 4 µg/mL” value ([2]; mouse plasma, plasma HSR) of the same molecule?
**A.** The value was 94%.

**Q.** And the “%fT > MIC for a MIC of 8 µg/mL” value ([2]; mouse plasma, plasma HSR)?
**A.** The value was 75%.

**Q.** What about the “%fT > MIC for a MIC of 16 µg/mL” value ([2]; mouse plasma, plasma HSR) of the same molecule?
**A.** The value was 55%.

**Q.** What about the “%fT > MIC for a MIC of 32 µg/mL” value ([2]; mouse plasma, plasma HSR) of the same molecule?
**A.** Its value is 29%.

**Q.** And the “%fT > MIC for a MIC of 64 µg/mL” value ([2]; mouse plasma, plasma HSR)?
**A.** Its value is 5%.

**Q.** And the “%fT > MIC for a MIC of 128 µg/mL” value ([2]; mouse plasma, plasma HSR)?
**A.** The value was 0%.

**Q.** What about the “%fT > MIC for a MIC of 1 µg/mL” value [3, 8] of the same molecule?
**A.** The value was 90%.

**Q.** What about the “%fT > MIC for a MIC of 2 µg/mL” value [3, 8] of the same molecule?
**A.** Its value is 71%.

**Q.** And the “%fT > MIC for a MIC of 4 µg/mL” value [3, 8]?
**A.** The value was 50%.

**Q.** And the “%fT > MIC for a MIC of 8 µg/mL” value [3, 8]?
**A.** Its value is 16%.

**Q.** What about the “%fT > MIC for a MIC of 16 µg/mL” value [3, 8] of the same molecule?
**A.** Its value is 0%.

**Q.** What about the “%fT > MIC for a MIC of 32 µg/mL” value [3, 8] of the same molecule?
**A.** The value was 0%.

**Q.** And the “%fT > MIC for a MIC of 64 µg/mL” value [3, 8]?
**A.** The value was 0%.

**Q.** And the “%fT > MIC for a MIC of 128 µg/mL” value [3, 8]?
**A.** Its value is 0%.

**Q.** What about the k el [4] of the same molecule?
**A.** The k el was 0.000694 s⁻¹.

**Q.** What about the “%fT > MIC for a MIC of 1 µg/mL” value ([4]; mouse ELF, ELF HSR) of the same molecule?
**A.** Its value is 78%.

**Q.** What about the “%fT > MIC for a MIC of 2 µg/mL” value ([4]; mouse ELF, ELF HSR) of the same molecule?
**A.** The value was 62%.

**Q.** What about the “%fT > MIC for a MIC of 4 µg/mL” value ([4]; mouse ELF, ELF HSR) of the same molecule?
**A.** The value was 43%.

**Q.** What about the “%fT > MIC for a MIC of 8 µg/mL” value ([4]; mouse ELF, ELF HSR) of the same molecule?
**A.** The value was 14%.

**Q.** What about the “%fT > MIC for a MIC of 16 µg/mL” value ([4]; mouse ELF, ELF HSR) of the same molecule?
**A.** Its value is 3%.

**Q.** What about the “%fT > MIC for a MIC of 32 µg/mL” value ([4]; mouse ELF, ELF HSR) of the same molecule?
**A.** Its value is 0%.

**Q.** What about the “%fT > MIC for a MIC of 64 µg/mL” value ([4]; mouse ELF, ELF HSR) of the same molecule?
**A.** Its value is 0%.

**Q.** What about the “%fT > MIC for a MIC of 128 µg/mL” value ([4]; mouse ELF, ELF HSR) of the same molecule?
**A.** The value was 0%.

**Q.** And the “K a-ELF (absorption rate constant into ELF compartment)” value ([4]; mouse ELF)?
**A.** The value was 7.00 h⁻¹.

**Q.** What about the “V ELF (volume of distribution in ELF compartment)” value ([4]; mouse ELF) of the same molecule?
**A.** Its value is 1.60 L/kg.

**Q.** What about the “%fT > MIC for a MIC of 1 µg/mL” value [6, 9] of the same molecule?
**A.** Its value is 100%.

**Q.** And the “%fT > MIC for a MIC of 2 µg/mL” value [6, 9]?
**A.** The value was 100%.

**Q.** What about the “%fT > MIC for a MIC of 4 µg/mL” value [6, 9] of the same molecule?
**A.** The value was 100%.

**Q.** What about the “%fT > MIC for a MIC of 8 µg/mL” value [6, 9] of the same molecule?
**A.** The value was 78%.

**Q.** And the “%fT > MIC for a MIC of 16 µg/mL” value [6, 9]?
**A.** The value was 50%.

**Q.** What about the “%fT > MIC for a MIC of 32 µg/mL” value [6, 9] of the same molecule?
**A.** The value was 19%.

**Q.** What about the “%fT > MIC for a MIC of 64 µg/mL” value [6, 9] of the same molecule?
**A.** Its value is 0%.

**Q.** And the “%fT > MIC for a MIC of 128 µg/mL” value [6, 9]?
**A.** Its value is 0%.
